How the values were obtained:
GK rats = settings: 9-week dietary administration, 0.005%: 4.1 mg/kg·day; cited from earlier work
KK-A^y mice [1] = test: Oral glucose tolerance test (OGTT) after 6-week feeding of the test diet (Example 2); assay type: in vivo, mouse
Description: (§1) As the voglibose, BASEN (registered trade name) tablets 0.2 (made by Takeda Pharmaceutical Company Ltd.) were crushed and used. Female KK-A^y mice (strain name KK-A^y/TaJcl) at 8 weeks old were purchased (from CLEA Japan, Inc.) and preliminarily reared in separate cages for 2 weeks. A KK-A^y mouse is a diabetic model mouse. In the preliminary rearing, free access to a commercial powder diet (trade name: CE-2, made by CLEA Japan, Inc.) and tap water was provided. On the first day of the experiment, the oral glucose tolerance test (OGTT) was conducted. That is, to the mice kept fasted from the previous day, a glucose solution ((2 g in 5 mL)/kg) was orally administered. […] Accu-Check Aviva, made by Roche Diagnostics). The area under the blood concentration-time curve (AUC) was calculated, and based on the AUC, the mice were divided into the following 4 groups […] mice/group). The grouped mice were given free access to the test diet. Group A: a group fed with CE-2 containing 10% dextrin. […] Group C: a group fed with CE-2 containing 10% dextrin and 0.0003% voglibose. […] Each group was fed with the test diet for 2 weeks as above, fasted overnight, and then measured for fasting glucose level with use of Accu-Check Aviva. […] The significant difference of each group from Group A was evaluated using Durmett's test, and the significant difference between 2 groups was evaluated using t-test.

KK-A^y mice [2] = test: Fasting blood glucose level after 2-week feeding of the test diet (Example 2); assay type: in vivo, mouse; settings: 2-week feeding of test diet (10% BBG9-1 dried cells and/or 0.0003% voglibose in CE-2), fasted overnight, FIG. 1
Description: as §1

OCC(CO)N[C@H]1C[C@](O)(CO)[C@@H](O)[C@H](O)[C@H]1O [voglibose, 1L(1S)-(1(OH),2,4,5/1,3)-5-[[2-hydroxy-1-(hydroxymethyl)-ethyl]amino]-1-C-(hydroxymethyl)-1,2,3,4-cyclohexane tetrol]
glucose tolerance (GK rats): improved the glucose tolerance | glucose tolerance (KK-A^y mice [1]; 6-week dietary administration, voglibose 0.0003%: 0.6 mg/kg·day): did not improve the glucose tolerance | blood glucose level in the OGTT after glucose loading (KK-A^y mice [1]; 6-week feeding (10% BBG9-1 dried cells and/or 0.0003% voglibose in CE-2), glucose 2 g/kg oral, FIG. 2): neither BBG9-1 alone nor voglibose alone inhibited the increase in the blood glucose level | fasting blood glucose level (KK-A^y mice [2]): neither BBG9-1 alone nor voglibose alone decreased the fasting blood glucose level
